Assay results published in patent US11572359B2, “PARP/PI3K double-target inhibit containing pyridopyrimidine structure” (CHINA PHARMACEUTICAL UNIVERSITY, priority 2017, dated 2023).
pIC50: −log10 of the molar value. Where two headings read alike, the source gives them in different places.

Legend:
PARP-1 = PARP-1 (Homo sapiens, UniProt P09874); test: PARP-1 inhibitory activity at the enzyme level (histone-coated plate, chemiluminescence); format: biochemical; conditions: for inhibition at 0.01 µM: 10 nM compound, read-out: Inhibition rate on PARP-1 (10 nM)
Protocol: Experimental method for PARP-1 inhibitory activity: taking out a 96-well plate pre-coated with histones, and adding a following enzyme reaction system and inhibitors of different concentrations into each well, including: 50 μL of a reaction buffer solution (Tris*HCl, pH 8.0), NAD^+, biotin-labeled activated DNA, PARP-1 enzyme, and an inhibitor; after reaction at a room temperature for 1 hour, adding 50 uL of avidin-labeled HRP into each well for reaction for 30 minutes; and then adding 100 μL of an HRP substrate, and detecting a chemiluminescence value on a SpectraMax M instrument. The percentage of enzyme activity is calculated by the following formula: Enzyme activity percentage (%)=(OD value administration hole-OD value background)/(OD value control hole−OD value background)×100%
(§1) Method for determining IC50 of PARP-1 and PI3Kα: diluting a drug concentration according to a three-fold concentration gradient, and detecting two duplicate wells at each concentration; taking the drug concentration as the abscissa and the percentage of enzyme activity corresponding to each concentration as the ordinate, and calculating to obtain inhibition IC50 values of all tested compounds by using Graphpad Prism5 for nonlinear regression.

[1] = test system: HCT116 (human colon cancer cells); test: Tumor cell proliferation inhibition (SRB, 72 hours), HCT116; format: cell-based
Protocol: (§2) Inoculating HCT116 (human colon cancer cells), HCC1937 (human breast cancer cells), MDA-MB-231 (human breast cancer cells) and MDA-MB-468 (human breast cancer cells) in a logarithmic growth phase with a certain quantity in a 96-well plate (200 μL/well) for culture for 24 hours so as to adhere to walls and then adding drugs. Arranging 3 duplicate wells for each drug concentration, and setting corresponding zero-cut holes and blank controls. After 72 hours of drug action, adding 50% TCA (50 μL/well) into adherent cells, fixing at 4° C. for 1 hour, pouring a fixing solution, washing for 5 times with distilled water, and naturally drying. Adding 100 μL of 4 mg/mL SRB into each well, staining at a room temperature for 15 minutes, discarding, washing for 5 times with 1% glacial acetic acid, and naturally drying. Finally, adding 150 μL of a 10 mM Tris solution into each well, shaking to be uniform, and measuring OD values at a wavelength of 565 nm using a wavelength-adjustable microplate reader (VERSAmax™, Molecular Device).

[2] = test system: MDA-MB-231 (human breast cancer cells); test: Tumor cell proliferation inhibition (SRB, 72 hours), MDA-MB-231; format: cell-based
Protocol: as §2

[3] = test system: MDA-MB-468 (human breast cancer cells); test: Tumor cell proliferation inhibition (SRB, 72 hours), MDA-MB-468; format: cell-based
Protocol: as §2

[4] = test system: HCC1937 (human breast cancer cells); test: Tumor cell proliferation inhibition (SRB, 72 hours), HCC1937; format: cell-based
Protocol: as §2

PI3Kα = PI3Kα (Homo sapiens, UniProt P42336); test: PI3Kα inhibitory activity at the enzyme level (ADP detection by luciferase method); format: biochemical; conditions: for inhibition at 0.1 µM: 100 nM compound, read-out: Inhibition rate on PI3Kα (100 nM)
Protocol: Experimental method for PI3Kα inhibitory activity: simultaneously adding 40 mM Tris, pH 7.4, 10 mM MgCl2, 0.1 mg/ml BSA, 1 mM DTT, 10 μM ATP, PI3Kα kinase and a kinase substrate into different concentrations of compounds to be sieved to form a 50 μL reaction system, after reaction at 30° C. for 40 minutes, detecting an ADP content in the system through a luciferase method, and then after reaction for 5 minutes, detecting a chemiluminescence signal on an MD-SpectraMax M5 multi-function microplate reader, wherein the intensity of a value of the chemiluminescence signal is in direct proportion to […]. The detected value of the chemiluminescence signal is substituted into the following formula: Enzyme activity percentage (%)=(OD value administration hole-OD value background)/(OD value control hole−OD value background)×100%
as §1

[5] = test system: Human Breast Cancer MDA-MB-468 Cell Nude Mice Xenograft; test: Growth of human breast cancer MDA-MB-468 cell nude mice xenograft; format: in vivo; conditions: for Tumor Volumes / Tumor weights: abdominal cavity, once every 2 days; for Anti-tumor effect compared with the combination group olaparib (50 mg/kg)/BKM120 (27.5 mg/kg) (in words): p<0.05; for Inhibition of the growth of the MDA-MB-468 nude mice xenografts (in words) / Inhibition rate compared with positive drugs olaparib and BKM120 (in words): I-1 50 mg/kg, 1-3 50 mg/kg, olaparib 50 mg/kg/BKM120 27.5 mg/kg; for Tumor weights: after 34 days, in g (unit assumed)
Protocol: Preparing an MDA-MB-468 cell line in a logarithmic growth phase into a 2×10^7/mL cell suspension under sterile conditions, and inoculating 0.1 mL of the cell suspension under the skin of the right axilla of each nude mouse. Measuring the diameter of a nude mice xenograft with a vernier caliper, and randomly dividing the animals into groups after the tumors grew to about 100 mm^3. Dynamically observing an anti-tumor effect of the tested animals using a method of measuring the tumor diameter, wherein the frequency of measurements of the tumor diameter is once every 2 days, and the administration volume is 0.4 mL/20 g. After 34 days, killing the mice and surgically removing and weighing tumor pieces. The formula for calculating tumor volume (TV) is: TV=½×a×b^2, wherein a and b represent the length and the width respectively.

[6] = 12 days, 50 mg/kg (I-1: medium)
[7] = 18 days, 50 mg/kg (I-1: medium)
[8] = 24 days, 50 mg/kg (I-1: medium)
[9] = 30 days, 50 mg/kg (I-1: medium)
[10] = 34 days, 50 mg/kg (I-1: medium)

PI3Kα, sequence (P42336 whole entry): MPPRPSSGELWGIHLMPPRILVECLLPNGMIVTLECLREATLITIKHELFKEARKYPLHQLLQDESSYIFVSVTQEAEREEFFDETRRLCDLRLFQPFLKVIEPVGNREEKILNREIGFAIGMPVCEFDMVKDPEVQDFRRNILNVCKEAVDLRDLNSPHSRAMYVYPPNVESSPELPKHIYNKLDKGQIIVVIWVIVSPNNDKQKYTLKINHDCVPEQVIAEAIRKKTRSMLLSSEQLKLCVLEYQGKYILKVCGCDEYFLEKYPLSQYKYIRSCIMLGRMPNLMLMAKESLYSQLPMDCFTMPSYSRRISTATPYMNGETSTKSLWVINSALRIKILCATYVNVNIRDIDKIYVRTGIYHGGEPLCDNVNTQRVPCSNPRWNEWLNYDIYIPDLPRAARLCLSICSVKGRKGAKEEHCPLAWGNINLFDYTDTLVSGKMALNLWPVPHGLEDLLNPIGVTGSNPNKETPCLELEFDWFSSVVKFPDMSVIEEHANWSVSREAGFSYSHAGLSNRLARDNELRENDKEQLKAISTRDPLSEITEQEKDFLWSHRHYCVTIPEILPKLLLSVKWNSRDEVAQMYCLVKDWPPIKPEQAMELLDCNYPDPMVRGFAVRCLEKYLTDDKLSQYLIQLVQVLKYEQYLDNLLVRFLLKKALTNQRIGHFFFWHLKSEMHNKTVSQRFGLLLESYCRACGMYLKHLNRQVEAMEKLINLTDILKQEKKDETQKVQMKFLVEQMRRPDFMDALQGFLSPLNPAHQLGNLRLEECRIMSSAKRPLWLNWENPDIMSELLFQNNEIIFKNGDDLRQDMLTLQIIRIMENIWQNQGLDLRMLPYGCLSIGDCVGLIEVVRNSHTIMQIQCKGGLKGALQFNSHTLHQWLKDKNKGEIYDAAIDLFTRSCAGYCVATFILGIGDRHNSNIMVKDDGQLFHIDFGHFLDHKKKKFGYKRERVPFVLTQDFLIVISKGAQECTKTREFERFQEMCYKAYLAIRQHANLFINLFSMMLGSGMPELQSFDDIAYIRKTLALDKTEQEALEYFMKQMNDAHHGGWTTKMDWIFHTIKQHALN
PI3Kα, sequence (P27986 whole entry partner): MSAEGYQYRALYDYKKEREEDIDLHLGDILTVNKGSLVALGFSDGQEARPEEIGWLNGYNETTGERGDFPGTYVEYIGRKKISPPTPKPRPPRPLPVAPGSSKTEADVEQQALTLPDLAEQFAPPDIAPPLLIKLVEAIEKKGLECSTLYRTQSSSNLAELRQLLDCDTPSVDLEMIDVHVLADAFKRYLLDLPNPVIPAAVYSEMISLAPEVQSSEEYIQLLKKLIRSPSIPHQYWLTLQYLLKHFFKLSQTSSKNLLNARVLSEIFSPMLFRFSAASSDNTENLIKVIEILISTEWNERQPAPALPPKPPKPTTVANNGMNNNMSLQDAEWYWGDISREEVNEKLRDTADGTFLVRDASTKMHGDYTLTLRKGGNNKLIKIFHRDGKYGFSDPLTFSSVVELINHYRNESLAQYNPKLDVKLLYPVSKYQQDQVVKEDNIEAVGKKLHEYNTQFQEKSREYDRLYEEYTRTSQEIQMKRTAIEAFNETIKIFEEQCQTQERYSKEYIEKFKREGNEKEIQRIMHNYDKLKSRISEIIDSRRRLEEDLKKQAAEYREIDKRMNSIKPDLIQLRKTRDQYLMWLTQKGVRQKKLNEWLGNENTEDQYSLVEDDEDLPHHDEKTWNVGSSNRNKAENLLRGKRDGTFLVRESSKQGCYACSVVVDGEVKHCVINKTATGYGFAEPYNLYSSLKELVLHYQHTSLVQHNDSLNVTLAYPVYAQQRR
PARP-1, sequence (P09874 whole entry): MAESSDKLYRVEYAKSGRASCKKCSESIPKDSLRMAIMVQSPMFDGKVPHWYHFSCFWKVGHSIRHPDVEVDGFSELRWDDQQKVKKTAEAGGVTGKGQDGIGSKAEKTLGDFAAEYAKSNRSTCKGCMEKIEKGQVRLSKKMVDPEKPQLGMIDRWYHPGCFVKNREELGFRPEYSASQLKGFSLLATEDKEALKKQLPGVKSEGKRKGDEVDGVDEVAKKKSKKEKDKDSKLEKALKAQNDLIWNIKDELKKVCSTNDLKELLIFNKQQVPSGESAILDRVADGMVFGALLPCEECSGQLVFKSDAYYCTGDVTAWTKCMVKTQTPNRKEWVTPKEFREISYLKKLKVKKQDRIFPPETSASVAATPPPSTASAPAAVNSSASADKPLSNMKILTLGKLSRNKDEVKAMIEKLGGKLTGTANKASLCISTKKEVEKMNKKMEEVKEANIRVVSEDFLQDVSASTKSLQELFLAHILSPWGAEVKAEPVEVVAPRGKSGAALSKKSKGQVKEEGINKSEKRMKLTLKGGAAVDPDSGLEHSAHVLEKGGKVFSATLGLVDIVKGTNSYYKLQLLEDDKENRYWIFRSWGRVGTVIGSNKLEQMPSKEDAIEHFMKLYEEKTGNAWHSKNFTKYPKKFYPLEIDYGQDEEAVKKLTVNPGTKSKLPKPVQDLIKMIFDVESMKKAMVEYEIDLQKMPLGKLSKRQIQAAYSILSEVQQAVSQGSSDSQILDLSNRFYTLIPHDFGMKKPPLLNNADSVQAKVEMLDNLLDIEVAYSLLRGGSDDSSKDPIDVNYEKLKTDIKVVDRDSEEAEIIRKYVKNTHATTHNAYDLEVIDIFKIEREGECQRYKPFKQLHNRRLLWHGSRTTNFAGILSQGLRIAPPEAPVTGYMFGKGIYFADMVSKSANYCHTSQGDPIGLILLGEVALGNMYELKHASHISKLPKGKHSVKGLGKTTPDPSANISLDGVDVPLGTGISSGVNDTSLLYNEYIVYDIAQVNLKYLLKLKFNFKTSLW

Row | Compound | pIC50 (PARP-1) | inhibition at 0.01 µM (PARP-1) [%] | pIC50 ([1]; Homo sapiens, HCT-116, 72 h) | pIC50 ([2]; Homo sapiens, MDA-MB-231, 72 h) | pIC50 ([3]; Homo sapiens, MDA-MB-468, 72 h) | pIC50 ([4]; Homo sapiens, HCC1937, 72 h) | pIC50 (PI3Kα) | inhibition at 0.1 µM (PI3Kα) [%] | Tumor Volumes ([5]; 0 day, 50 mg/kg (I-1: medium)) [mm^3] | Anti-tumor effect compared with the combination group olaparib (50 mg/kg)/BKM120 (27.5 mg/kg) (in words) ([5]; 50 mg/kg) | Tumor Volumes ([5]; 6 days, 50 mg/kg (I-1: medium)) [mm^3] | Tumor Volumes [5, 6] [mm^3] | Tumor Volumes [5, 7] [mm^3] | Tumor Volumes [5, 8] [mm^3] | Tumor Volumes [5, 9] [mm^3] | Tumor Volumes [5, 10] [mm^3] | Inhibition of the growth of the MDA-MB-468 nude mice xenografts (in words) [5] | Inhibition rate compared with positive drugs olaparib and BKM120 (in words) [5] | Tumor weights ([5]; 50 mg/kg (I-1: medium)) | pIC50 [3] | further results
1 | Nc1ccc(-c2nc3c(c(N4CCOCC4)n2)CCN(C(=O)c2cc(Cc4n[nH]c(=O)c5ccccc45)ccc2F)C3)cn1 [I-2, 4-(3-(2-(6-aminopyridin-3-yl)-4-morpholinyl-5,6,7,8-tetrahydropyrido[3,4-d]pyrimidin-7-formyl)-4-fluorobenzyl)phthalazin-1(2H)-one] | 9.40 | 93 | 6.66 | 6.09 | 5.87 | 6.92 | 6.89 | 66 | – | – | – | – | – | – | – | – | – | – | – | – | –
2 | Nc1ncc(-c2nc3c(c(N4CCOCC4)n2)CCN(C(=O)c2cc(Cc4n[nH]c(=O)c5ccccc45)ccc2F)C3)cn1 [I-1, 4-(3-(2-(2-aminopyrimidin-5-yl)-4-morpholinyl-5,6,7,8-tetrahydropyrido [3,4-d]pyrimidin-7-formyl)-4-fluorobenzyl) phthalazin-1(2H)-one] | 8.43 | 81 | – | – | > 6.00 | – | 7.16 | 66 | 94.95 | obviously superior | 136.45 | 222.15 | 301.78 | 399.10 | 489.89 | 551.70 | significantly inhibit the growth | higher | 0.54 | 6.04 | Tumor Volumes ([5]; 0 day, high, 100 mg/kg): 93.30 mm^3; Tumor Volumes ([5]; 0 day, low, 25 mg/kg): 96.16 mm^3; Dose dependence of tumor growth inhibition (in words) ([5]; 25, 50, 100 mg/kg): dose-dependent manner; Tumor Volumes ([5]; 6 days, high, 100 mg/kg): 122.80 mm^3; Tumor Volumes ([5]; 6 days, low, 25 mg/kg): 205.61 mm^3; Tumor Volumes ([5]; 12 days, high, 100 mg/kg): 145.60 mm^3; Tumor Volumes ([5]; 12 days, low, 25 mg/kg): 303.37 mm^3; Tumor Volumes ([5]; 18 days, high, 100 mg/kg): 186.00 mm^3; Tumor Volumes ([5]; 18 days, low, 25 mg/kg): 401.23 mm^3; Tumor Volumes ([5]; 24 days, high, 100 mg/kg): 209.30 mm^3; Tumor Volumes ([5]; 24 days, low, 25 mg/kg): 555.25 mm^3; Tumor Volumes ([5]; 30 days, high, 100 mg/kg): 234.10 mm^3; Tumor Volumes ([5]; 30 days, low, 25 mg/kg): 707.38 mm^3; Tumor Volumes ([5]; 34 days, high, 100 mg/kg): 250.00 mm^3; Tumor Volumes ([5]; 34 days, low, 25 mg/kg): 808.40 mm^3; Tumor weights ([5]; high, 100 mg/kg): 0.34; Tumor weights ([5]; low, 25 mg/kg): 0.85; pIC50 [4]: 7.09
3 | C[C@@H]1CN(c2nc(-c3cnc(N)nc3)nc3c2CCN(C(=O)c2cc(Cc4n[nH]c(=O)c5ccccc45)ccc2F)C3)C[C@H](C)O1 [I-12, 4-(3-(2-(2-aminopyrimidin-5-yl)-4-((2S,6R)-2,6-dimethylmorpholinyl)-5,6,7,8-tetrahydropyrido [3,4-d]pyrimidin-7-formyl)-4-fluorobenzyl) phthalazin-1(2H)-one] | 8.41 | 76 | 5.99 | 5.95 | 5.80 | 6.11 | 7.03 | 40 | – | – | – | – | – | – | – | – | – | – | – | – | melting point: 204 to 206 °C
4 | O=C(c1cc(Cc2n[nH]c(=O)c3ccccc23)ccc1F)N1CCc2c(nc(-c3cccc4[nH]ncc34)nc2N2CCOCC2)C1 [I-8, 4-(3-(2-(1H-indazole-4-yl)-4-morpholinyl-5,6,7,8-tetrahydropyrido[3,4-d]pyrimidin-7-formyl)-4-fluorobenzyl)phthalazin-1(2H)-one] | – | 91 | 6.27 | 6.15 | 5.94 | 6.32 | – | 42 | – | – | – | – | – | – | – | – | – | – | – | – | –
5 | Nc1cc(C(F)(F)F)c(-c2nc3c(c(N4CCOCC4)n2)CCN(C(=O)c2cc(Cc4n[nH]c(=O)c5ccccc45)ccc2F)C3)cn1 [I-3, 4-(3-(2-(6-amino-4-(trifluoromethyl)pyridin-3-yl)-4-morpholinyl-5,6,7,8-tetrahydropyrido [3,4-d]pyrimidin-7-formyl)-4-fluorobenzyl)phthalazin-1(2H)-one] | 8.31 | 55 | > 6.00 | – | – | > 6.00 | 6.71 | 34 | 93.00 | obviously superior | 142.00 | 190.90 | 216.60 | 241.50 | 280.80 | 310.10 | significantly inhibit the growth | higher | 0.44 | 6.58 | Anti-tumor effect, ranking among the groups (in words) ([5]; 50 mg/kg): optimal; pIC50 [1]: 6.11; pIC50 [2]: 6.81; pIC50 [4]: 6.30
